Patent US20250290076A1, “EPICARDIAL CELL REGENERATION PROMOTER AND METHOD FOR PROMOTING EPICARDIAL CELL REGENERATION” (KYOTO UNIVERSITY, priority 2022, published 2025)

How the values were obtained:
Assay type in all cases: cell-based
[1] = test system: human iPS cell-derived fetal epicardium; assay: Wound-healing assay; conditions: from 20 hours to 24 hours after scratching; vs negative control siRNA
Description: (§1) In the siRNA transfection assay, the human iPS cell-derived fetal epicardium was seeded at a density of 0.8×10^6 cells per 10 cm dish, and transfection was carried out using RNAiMax (Invitrogen). Twenty-four hours after the transfection, the culture medium was replaced with a fresh medium. A small interfering RNA (siRNA) (sense strand: CAAGGAGUCAGACAUUUUAtt (SEQ ID NO: 1), an anti-sense strand: UAAAAUGUCUGACUCCUUGtt (SEQ ID NO: 2)) targeting CDKN1A, and a negative control siRNA No.1 (4390843) derived from Ambion Silencer Select, were used in accordance with the manufacturer's instructions.
The cells were seeded on a six-well plate and cultured until 100% confluent. Subsequently, the cell monolayer was scratched with a pipette tip, to create a physical wound manually. The scratched area was imaged 0, 12, 16, 20 and 24 hours after scratching. The area without cells at the beginning, and the remaining area after 12, 16, 20 and 24 hours, were quantified by Image-J. Thereafter, the percentage of the scratched area into which migrating cells reassembled (the percentage of the wound-closed area) was calculated, with respect to the scratched area.
Further, the wound-healing assay was performed for the human iPS cell-derived fetal epicardium which had been subjected to the transfection assay using each siRNA. […]

[2] = test system: human iPS cell-derived fetal epicardium; assay: Transcriptome analysis for gene signature of cell quiescence by RNA sequencing; conditions: compared to human iPS cell-derived fetal epicardium and adult epicardium
Description: as §1
The data obtained by RNA sequencing were normalized using NOISeq. The data of the adult epicardium are published for the analysis, under the GSE accession number: GSE8484085. The primary data of the RNA sequencing were processed using RStudio, for mapping and gene expression analysis. The gene expression data for searching, loading and pre-processing were processed using the Bioconductor package, NOISeq, for performing the data analysis and the differential expression analysis of the RNA sequencing data. Heatmaps for clustering differentially expressed genes (DEG) were generated, using R script.
In addition, the transcriptome analysis for detecting the gene signature of cell quiescence was carried out by RNA sequencing (FIG. 6). […]

human epicardial cells = assay: Colony formation assay; conditions: colony formation for 14 days after siRNA transfection; vs negative control siRNA
Description: as §1
[…] Thereafter, the colony was fixed with 4% PFA, stained with crystal violet, and counted by Image-J.
The colony formation assay was carried out in the same manner, in order to measure the viability of the human epicardial cells.

[3] = test system: human iPS cell-derived fetal epicardium; assay: Cell proliferation curve assay; conditions: cell proliferation curves for 7 days after siRNA transfection; vs negative control siRNA
Description: as §1
The cell proliferation was evaluated by the time-course curve of the proliferation of the cells on a six-well plate. The cells were seeded at a density of 4 ×10^4 cells per well, and the total number of cells was counted using trypan blue for 8 days at intervals of 24 hours. The cell proliferation curves were generated by plotting the number of cells against time. After seeding, the cells were fixed with 4% paraformaldehyde (PFA), and stained with crystal violet on the days the cells were counted. The values were represented as the cell proliferation rate of the cells proliferated in the presence of 10% FBS. “0%” refers to the number of cells on day 0. […]

CDKN1A = assay: siRNA transfection assay, relative CDKN1A mRNA expression by quantitative RT-PCR; conditions: human iPS cell-derived fetal epicardium; vs negative control siRNA; normalized with GAPDH
Description: as §1
RNAs were extracted using QIAzol lysis reagent (manufactured by QIAGEN N.V.), and cDNA was synthesized from the total RNA using ReverTra Ace qPCR RT Master Mix with gDNA Remover (manufactured by TOYOBO Co., Ltd.). Subsequently, quantitative RT-PCR was performed using Thunderbird SYBR qPCR Mix (manufactured by TOYOBO Co., Ltd.)), in One Step Real-Time PCR System (Applied Biosystems). The gene expression results were quantified by the AACt method, and normalized with GAPDH.
The primers used are as follows. […]
The human iPS cell-derived fetal epicardium was subjected to siRNA transfection assay, using a siRNA (siCDKN1A) targeting CDKN1A or a negative control siRNA (control), and the relative mRNA expression levels of CDKN1A were measured by quantitative RT-PCR.

Substance: siCDKN1A: siRNA targeting CDKN1A; sense strand CAAGGAGUCAGACAUUUUAtt (SEQ ID NO: 1), anti-sense strand UAAAAUGUCUGACUCCUUGtt (SEQ ID NO: 2) (sense CAAGGAGUCAGACAUUUUATT; antisense UAAAAUGUCUGACUCCUUGTT; chemistry not given here)
- wound healing capacity (percentage of the wound-closed area) [1]: significant increase
- cell quiescence gene signature [2]: more released from quiescence
- viability of the human epicardial cells (colony formation) (human epicardial cells): significant increase
- proliferative capacity of the human epicardial cells [3]: significant increase
- expression level of CDKN1A at the mRNA level as compared to that in the control (CDKN1A): ≤ 50%
